These are literature values, as cited in paper PMC4918035, “A human and animal model-based approach to investigating the anti-inflammatory profile and potential of the 5-HT2B receptor antagonist AM1030” (Journal of Inflammation (London, England), 2016).

For this series, the target named is T1, 5-HT2B receptor (Homo sapiens, UniProt P41595).
T1 construct: gene HTR2B
Nature of the series: receptor binding (Ki) and functional inhibition (IC50 […]); assay details not described.

T1 sequence (P41595 whole entry): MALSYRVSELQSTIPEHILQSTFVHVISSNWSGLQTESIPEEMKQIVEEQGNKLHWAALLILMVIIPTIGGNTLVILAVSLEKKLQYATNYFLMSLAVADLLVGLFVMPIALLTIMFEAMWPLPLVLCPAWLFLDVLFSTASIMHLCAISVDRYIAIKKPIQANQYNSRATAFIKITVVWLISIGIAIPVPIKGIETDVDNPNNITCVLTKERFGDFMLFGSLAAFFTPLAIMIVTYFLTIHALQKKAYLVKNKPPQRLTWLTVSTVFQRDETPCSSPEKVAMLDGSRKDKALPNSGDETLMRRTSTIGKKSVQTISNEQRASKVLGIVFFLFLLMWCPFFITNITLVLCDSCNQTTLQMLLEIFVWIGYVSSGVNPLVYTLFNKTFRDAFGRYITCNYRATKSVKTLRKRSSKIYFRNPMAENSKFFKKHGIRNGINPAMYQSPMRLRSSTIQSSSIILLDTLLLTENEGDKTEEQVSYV

With AM1030, the inhibitory constant (Ki) is 330 nM.

One may read the Ki as the equilibrium dissociation constant of an inhibitor or competing ligand from its target.
